Like-named read-outs stand apart in the source and are kept apart here.
Columns and labels:
[1] = test system: diseased primary human synovial fibroblasts; experiment: Cytokine response by primary human synovial fibroblasts stimulated with IL-17A, TNF-α or both; type: cell-based; conditions: Fibroblast, 48 h
Experimental: Primary synovial fibroblasts isolated from the knee of a patient diagnosed with rheumatoid arthritis/osteoarthritis were obtained from Asterand (Detroit, Mich.) and maintained in FGM-2 fibroblast growth medium (Lonza, Allendale, N.J.). Cells were seeded at approximately 1.6e4 cells/ml and incubated at 37° C. in a humidified atmosphere at 5% CO2 until the cells reached ˜90% confluence. Cells were pre-treated with the test compounds (10 μM down by ⅕ in a 4-point serial dilution series) for 1 h at 37° C. in a humidified atmosphere at 5% CO2. DMSO at a final concentration of 0.1% served as the non-inhibited control. […] Cells were stimulated with 10 ng/ml human recombinant IL-17A (eBioscience, San Diego, Calif.), 10 ng/ml TNF-α, (Cell Signaling Technology, Danvers, Mass.) or both, for 48 h. Supernatant was then collected and analyzed for cytokine concentrations using the Bio-Plex Pro Human Cytokine 17-Plex Panel supplemented with RANTES and VEGF Singleplex analytes (Bio-Rad Laboratories, Hercules, Calif.) according to the manufacturer's instructions. Magnetic beads were measured on the Bio-Plex MAGPIX multiplex reader instrument using the accompanying xPONENT 4.2 acquisition software (Bio-Rad Laboratories). Data were analyzed via the Bio-Plex Manager software v6.1 (Bio-Rad Laboratories).

TRIM24 = target: T1, TRIM24 (Homo sapiens, UniProt O15164); experiment: Bromodomain binding assay: TRIM24
T1 construct: made in house; host or cells: E. coli host derived from the BL21 strain (T7 phage lysate)
T1 sequence (O15164 899-1004 limits assumed): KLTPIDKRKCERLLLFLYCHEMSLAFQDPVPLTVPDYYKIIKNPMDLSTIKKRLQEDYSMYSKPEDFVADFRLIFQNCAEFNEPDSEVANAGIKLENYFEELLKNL
Experimental: (§1) T7 phage strains displaying bromodomains were grown in parallel in 24-well blocks in an E. coli host derived from the BL21 strain. E. coli were grown to log-phase and infected with T7 phage from a frozen stock (multiplicity of infection=0.4) and incubated with shaking at 32° C. until lysis (90-150 minutes). The lysates were centrifuged (5,000×g) and filtered (0.2 μm) to remove cell debris. […] The liganded beads were blocked with excess biotin and washed with blocking buffer (SeaBlock (Pierce), 1% BSA, 0.05 Tween 20, 1 mM DTT) to remove unbound ligand and to reduce non-specific phage binding. […] Test compounds (T62 and 46) were prepared as 1000× stocks in 100% DMSO and subsequently diluted 1:10 in monoethylene glycol (MEG) to create stocks at 100× the screening concentration (resulting stock solution is 10% DMSO/90% MEG). The compounds were then diluted directly into the assays such that the final concentration of DMSO and MEG were 0.1% and 0.9%, respectively. All reactions were performed in polystyrene 96-well plates in a final volume of 0.135 ml. […] The bromodomain concentration in the eluates was measured by qPCR. Compounds were assayed for binding activity against a panel of 40 bromodomain-containing proteins.

PBRM1 = target: T2, PBRM1 (Homo sapiens, UniProt Q86U86); experiment: Bromodomain binding assay: PBRM1
T2 construct: read out by qPCR of the phage DNA
T2 sequence (Q86U86 whole entry): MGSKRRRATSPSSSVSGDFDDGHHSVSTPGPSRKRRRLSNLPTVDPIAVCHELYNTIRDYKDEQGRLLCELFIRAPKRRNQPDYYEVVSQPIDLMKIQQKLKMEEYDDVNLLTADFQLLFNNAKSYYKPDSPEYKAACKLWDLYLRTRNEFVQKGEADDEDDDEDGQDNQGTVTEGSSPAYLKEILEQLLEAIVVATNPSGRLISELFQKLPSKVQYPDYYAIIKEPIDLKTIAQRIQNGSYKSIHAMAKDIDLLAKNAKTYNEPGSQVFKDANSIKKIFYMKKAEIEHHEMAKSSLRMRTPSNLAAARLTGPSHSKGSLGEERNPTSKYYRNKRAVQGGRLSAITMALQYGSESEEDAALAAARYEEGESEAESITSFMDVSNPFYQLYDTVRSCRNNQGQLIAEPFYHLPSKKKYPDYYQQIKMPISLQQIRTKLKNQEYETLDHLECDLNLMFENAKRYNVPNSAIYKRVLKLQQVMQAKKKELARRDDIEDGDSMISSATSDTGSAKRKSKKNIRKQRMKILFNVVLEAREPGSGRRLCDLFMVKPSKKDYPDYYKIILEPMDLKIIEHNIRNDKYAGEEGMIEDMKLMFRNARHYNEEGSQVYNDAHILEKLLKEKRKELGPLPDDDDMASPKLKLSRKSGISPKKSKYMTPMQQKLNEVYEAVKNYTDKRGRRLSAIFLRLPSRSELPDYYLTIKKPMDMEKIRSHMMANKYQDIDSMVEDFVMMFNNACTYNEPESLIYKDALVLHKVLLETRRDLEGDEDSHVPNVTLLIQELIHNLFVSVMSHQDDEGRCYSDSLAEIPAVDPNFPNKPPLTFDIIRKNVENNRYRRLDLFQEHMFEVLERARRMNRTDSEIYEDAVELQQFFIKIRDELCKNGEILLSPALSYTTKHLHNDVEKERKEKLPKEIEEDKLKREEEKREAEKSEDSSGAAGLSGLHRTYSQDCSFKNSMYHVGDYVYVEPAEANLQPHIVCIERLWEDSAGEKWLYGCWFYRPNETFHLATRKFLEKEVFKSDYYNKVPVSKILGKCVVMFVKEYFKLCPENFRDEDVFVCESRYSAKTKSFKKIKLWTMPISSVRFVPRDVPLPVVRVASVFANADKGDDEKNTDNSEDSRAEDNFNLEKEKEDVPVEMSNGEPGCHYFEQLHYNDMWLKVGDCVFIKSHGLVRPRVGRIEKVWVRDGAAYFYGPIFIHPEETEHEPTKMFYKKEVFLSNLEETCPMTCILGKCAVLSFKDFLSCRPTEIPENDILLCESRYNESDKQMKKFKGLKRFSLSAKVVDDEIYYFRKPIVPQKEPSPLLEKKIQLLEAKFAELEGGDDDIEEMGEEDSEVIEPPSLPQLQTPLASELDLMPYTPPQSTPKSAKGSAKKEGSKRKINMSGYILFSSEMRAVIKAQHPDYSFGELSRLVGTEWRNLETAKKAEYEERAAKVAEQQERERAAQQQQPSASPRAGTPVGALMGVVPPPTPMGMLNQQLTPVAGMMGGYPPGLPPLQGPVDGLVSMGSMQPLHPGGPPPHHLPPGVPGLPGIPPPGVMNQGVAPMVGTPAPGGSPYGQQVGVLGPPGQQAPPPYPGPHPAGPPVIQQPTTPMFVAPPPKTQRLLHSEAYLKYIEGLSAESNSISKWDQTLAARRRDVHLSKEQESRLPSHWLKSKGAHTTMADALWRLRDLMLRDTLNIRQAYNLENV
Experimental: as §1

SMARCA2 = target: T3, SMARCA2 (Homo sapiens, UniProt P51531); experiment: Bromodomain binding assay: SMARCA2
T3 construct: made in house; host or cells: E. coli host derived from the BL21 strain (T7 phage lysate)
T3 sequence (P51531 1378-1506 limits assumed): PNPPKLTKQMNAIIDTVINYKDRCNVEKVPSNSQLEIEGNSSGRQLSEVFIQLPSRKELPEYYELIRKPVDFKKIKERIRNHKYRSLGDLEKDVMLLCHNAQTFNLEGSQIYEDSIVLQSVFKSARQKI
Experimental: as §1

TRIM33 = target: T4, TRIM33 (Homo sapiens, UniProt Q9UPN9); experiment: Bromodomain binding assay: TRIM33
T4 construct: made in house; host or cells: E. coli host derived from the BL21 strain (T7 phage lysate)
T4 sequence (Q9UPN9 957-1080 limits assumed): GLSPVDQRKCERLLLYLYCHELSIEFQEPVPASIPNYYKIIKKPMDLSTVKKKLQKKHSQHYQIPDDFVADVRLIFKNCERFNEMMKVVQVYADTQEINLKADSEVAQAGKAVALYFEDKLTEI
Experimental: as §1

GCN5L2 = target: T5, GCN5L2 (Homo sapiens, UniProt Q92830); experiment: Bromodomain binding assay: GCN5L2
T5 construct: made in house; host or cells: E. coli host derived from the BL21 strain (T7 phage lysate)
T5 sequence (Q92830 728-832 limits assumed): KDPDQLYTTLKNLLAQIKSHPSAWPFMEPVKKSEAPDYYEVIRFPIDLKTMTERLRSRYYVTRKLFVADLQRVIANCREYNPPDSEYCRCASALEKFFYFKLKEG
Experimental: as §1

ATAD2B = target: T6, ATAD2B (Homo sapiens, UniProt Q9ULI0); experiment: Bromodomain binding assay: ATAD2B
T6 construct: T7 phage strains displaying bromodomains were grown in parallel; made in house; host or cells: E. coli host derived from BL21, infected with T7 phage
T6 sequence (Q9ULI0 951-1066 limits assumed, species assumed): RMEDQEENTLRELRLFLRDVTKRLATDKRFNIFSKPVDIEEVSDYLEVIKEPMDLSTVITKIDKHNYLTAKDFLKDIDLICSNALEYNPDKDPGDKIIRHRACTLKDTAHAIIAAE
Experimental: as §1

BRD8 = target: T7, BRD8 (Homo sapiens, UniProt Q9H0E9); experiment: Bromodomain binding assay: BRD8
T7 construct: read out by qPCR of the phage DNA
T7 sequence (Q9H0E9 whole entry): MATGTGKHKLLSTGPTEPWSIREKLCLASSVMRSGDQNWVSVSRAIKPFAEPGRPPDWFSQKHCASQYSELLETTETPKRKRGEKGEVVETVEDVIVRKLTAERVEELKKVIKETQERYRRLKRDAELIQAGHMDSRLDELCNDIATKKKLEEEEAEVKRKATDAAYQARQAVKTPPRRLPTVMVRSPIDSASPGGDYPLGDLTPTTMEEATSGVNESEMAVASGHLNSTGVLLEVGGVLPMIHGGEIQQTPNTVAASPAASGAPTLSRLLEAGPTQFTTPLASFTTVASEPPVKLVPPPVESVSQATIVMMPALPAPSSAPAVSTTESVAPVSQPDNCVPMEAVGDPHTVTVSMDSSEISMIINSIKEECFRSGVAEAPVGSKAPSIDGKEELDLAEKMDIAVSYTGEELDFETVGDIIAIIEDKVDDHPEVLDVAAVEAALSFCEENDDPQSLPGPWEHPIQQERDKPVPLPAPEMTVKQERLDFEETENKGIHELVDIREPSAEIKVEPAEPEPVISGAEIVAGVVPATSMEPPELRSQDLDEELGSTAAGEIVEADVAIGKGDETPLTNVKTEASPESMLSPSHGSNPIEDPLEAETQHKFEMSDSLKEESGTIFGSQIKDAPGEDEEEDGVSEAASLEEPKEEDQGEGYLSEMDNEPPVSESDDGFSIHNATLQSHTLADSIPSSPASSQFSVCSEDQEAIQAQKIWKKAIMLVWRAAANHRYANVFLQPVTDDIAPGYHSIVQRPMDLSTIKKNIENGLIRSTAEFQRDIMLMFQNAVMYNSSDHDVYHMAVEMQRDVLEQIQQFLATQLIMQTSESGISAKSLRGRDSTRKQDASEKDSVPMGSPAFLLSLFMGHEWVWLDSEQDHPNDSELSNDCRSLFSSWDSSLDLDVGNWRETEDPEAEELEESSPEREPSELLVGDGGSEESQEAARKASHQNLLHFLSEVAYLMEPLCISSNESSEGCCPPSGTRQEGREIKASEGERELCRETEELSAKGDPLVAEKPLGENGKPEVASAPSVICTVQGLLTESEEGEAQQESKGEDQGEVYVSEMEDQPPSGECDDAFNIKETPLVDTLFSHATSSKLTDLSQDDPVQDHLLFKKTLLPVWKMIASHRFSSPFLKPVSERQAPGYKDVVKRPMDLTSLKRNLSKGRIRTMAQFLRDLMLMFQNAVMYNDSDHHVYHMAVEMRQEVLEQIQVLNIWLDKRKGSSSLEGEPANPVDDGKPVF
Experimental: as §1

PCAF = target: T8, PCAF (Homo sapiens, UniProt Q92831); experiment: Bromodomain binding assay: PCAF
T8 construct: made in house; host or cells: E. coli host derived from the BL21 strain (T7 phage lysate)
T8 sequence (Q92831 723-827 limits assumed): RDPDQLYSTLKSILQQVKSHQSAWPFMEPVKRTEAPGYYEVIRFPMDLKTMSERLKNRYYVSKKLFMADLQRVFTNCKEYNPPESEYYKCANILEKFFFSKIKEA
Experimental: as §1

BRD1 = target: T9, BRD1 (Homo sapiens, UniProt O95696); experiment: Bromodomain binding assay: BRD1
T9 construct: T7 phage strains displaying bromodomains were grown in parallel; made in house; host or cells: E. coli host derived from BL21, infected with T7 phage
T9 sequence (O95696 562-666 limits assumed, species assumed): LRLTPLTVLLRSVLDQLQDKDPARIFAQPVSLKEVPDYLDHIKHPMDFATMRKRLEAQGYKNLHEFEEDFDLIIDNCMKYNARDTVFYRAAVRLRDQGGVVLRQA
Experimental: as §1

FALZ = target: T10, FALZ (Homo sapiens, UniProt Q12830); experiment: Bromodomain binding assay: FALZ
T10 construct: made in house; host or cells: E. coli host derived from the BL21 strain (T7 phage lysate)
Experimental: as §1

cynomolgus monkey PBMCs = experiment: Cytokine response by primary cynomolgus monkey PBMCs stimulated with LPS; type: cell-based, cynomolgus monkey (M. fascicularis); conditions: Macaca fascicularis, PBMC, 100 ng/ml LPS 20 h
Experimental: Freshly isolated cynomolgus monkey (M. fascicularis) peripheral blood mononuclear cells (PBMCs) were purchased from SNBL (Everett, Wash.). Cells were seeded at 1.8e6 cells/ml in RPMI 1640 (Life Technologies, Grand Island, N.Y.) containing 10% (v/v) charcoal-dextran treated, heat inactivated FBS (Omega Scientific, Tarzana, Calif.), 0.05 mM 2-Mercaptoethanol (Sigma-Aldrich, St. Louis, Mo.), and 1×Pen/Strep Amphotericin B (Lonza, Allendale, N.J.). Cells were pre-treated with 0.1% DMSO or with a test compound for 1 h at 37° C. in a humidified atmosphere at 5% CO2. Compounds were tested at 10 μM down by ⅕ in a 4-point serial dilution series. Cells were then stimulated with 100 ng/ml LPS from E. coli 0111:B4 (EMD Millipore, Billerica, Mass.) for 20 h at 37° C. in a humidified atmosphere at 5% CO2. Supernatant was collected and analyzed using the Milliplex Map Non-human Primate Cytokine Magnetic Bead Panel Kit (EMD Millipore) as per manufacturer's protocols. Magnetic beads were read on the Bio-Plex MAGPIX multiplex reader instrument using the accompanying xPONENT 4.2 acquisition software (Bio-Rad Laboratories, Hercules, Calif.). Data were analyzed via the Bio-Plex Manager software v6.1 (Bio-Rad Laboratories).

[2] = +Both IL-17A + TNF-α, read-out: EC50 (μM), G-CSF
[3] = +Both IL-17A + TNF-α, read-out: EC50 (μM), IL-6
[4] = +Both IL-17A + TNF-α, read-out: EC50 (μM), IL-8
[5] = +Both IL-17A + TNF-α, read-out: EC50 (μM), RANTES
[6] = +IL-17A 10 ng/ml, read-out: EC50 (μM), G-CSF
[7] = +IL-17A 10 ng/ml, read-out: EC50 (μM), IL-6
[8] = +IL-17A 10 ng/ml, read-out: EC50 (μM), IL-8
[9] = +IL-17A 10 ng/ml, read-out: EC50 (μM), RANTES
[10] = +TNF-α 10 ng/ml, read-out: EC50 (μM), G-CSF
[11] = +TNF-α 10 ng/ml, read-out: EC50 (μM), IL-6
[12] = +TNF-α 10 ng/ml, read-out: EC50 (μM), IL-8
[13] = +TNF-α 10 ng/ml, read-out: EC50 (μM), RANTES
[14] = read-out: EC50 (μM) under LPS stimulation, G-CSF
[15] = read-out: EC50 (μM) under LPS stimulation, GM-CSF
[16] = read-out: EC50 (μM) under LPS stimulation, IFN-γ
[17] = read-out: EC50 (μM) under LPS stimulation, IL-1ra
[18] = read-out: EC50 (μM) under LPS stimulation, IL-1β
[19] = read-out: EC50 (μM) under LPS stimulation, IL-4
[20] = read-out: EC50 (μM) under LPS stimulation, IL-6
[21] = read-out: EC50 (μM) under LPS stimulation, IL-8
[22] = read-out: EC50 (μM) under LPS stimulation, IL-10
[23] = read-out: EC50 (μM) under LPS stimulation, IL-12/IL-23 (p40)
[24] = read-out: EC50 (μM) under LPS stimulation, MCP-1
[25] = read-out: EC50 (μM) under LPS stimulation, MIP-1α
[26] = read-out: EC50 (μM) under LPS stimulation, MIP-1β
[27] = read-out: EC50 (μM) under LPS stimulation, TNF-α
[28] = read-out: EC50 (μM) under LPS stimulation, VEGF
[29] = read-out: EC50 (μM) under LPS stimulation, sCD40L

Structure (SMILES) | EC50 [1, 2] [µM] | EC50 [1, 3] [µM] | EC50 [1, 4] [µM] | EC50 [1, 5] [µM] | EC50 [1, 6] [µM] | EC50 [1, 7] [µM] | EC50 [1, 8] [µM] | EC50 [1, 9] [µM] | EC50 [1, 10] [µM] | EC50 [1, 11] [µM] | EC50 [1, 12] [µM] | EC50 [1, 13] [µM] | Kd (TRIM24) [µM] | Kd (PBRM1) [µM] | Kd (SMARCA2) [µM] | Kd (TRIM33) [µM] | Kd (GCN5L2) [µM] | Kd (ATAD2B) [µM] | Kd (BRD8) [µM] | Kd (PCAF) [µM] | other results
CCOc1cc(C(=O)N2CC[C@@H](N(C)C)C2)ccc1Nc1cc2c(cn1)N(C)C(=O)c1ccccc1N2C [Compound 115] | > 10 | > 10 | > 10 | 1.88 | 2.67 | 1.04 | 0.39 | > 10 | 1.25 | 1.71 | > 10 | > 10 |  |  |  |  |  |  |  |  | 
CCOc1cc(C(=O)N[C@H]2CC[C@H](O)CC2)ccc1Nc1cc2c(cn1)N(C)C(=O)c1ccccc1N2C [Compound T62] |  |  |  |  |  |  |  |  |  |  |  |  | > 20 | > 20 | > 20 | > 20 | > 20 | > 20 | > 20 | > 20 | Kd (BRD1): > 20 µM; Kd (FALZ): > 20 µM
CCOc1cc(C(=O)N2CCCN(C)CC2)ccc1Nc1cc2c(cn1)N(C)C(=O)c1ccccc1N2C [Compound 8] |  |  |  |  |  |  |  |  |  |  |  |  |  |  |  |  |  |  |  |  | EC50 (cynomolgus monkey PBMCs; [14]): 0.58 µM; EC50 (cynomolgus monkey PBMCs; [15]): 0.5 µM; EC50 (cynomolgus monkey PBMCs; [16]): 0.55 µM; EC50 (cynomolgus monkey PBMCs; [17]): 0.71 µM; EC50 (cynomolgus monkey PBMCs; [18]): 0.47 µM; EC50 (cynomolgus monkey PBMCs; [19]): 1.29 µM; EC50 (cynomolgus monkey PBMCs; [20]): 1.42 µM; EC50 (cynomolgus monkey PBMCs; [21]): 0.98 µM; EC50 (cynomolgus monkey PBMCs; [22]): 0.52 µM; EC50 (cynomolgus monkey PBMCs; [23]): 0.75 µM; EC50 (cynomolgus monkey PBMCs; [24]): 0.32 µM; EC50 (cynomolgus monkey PBMCs; [25]): 1.63 µM; EC50 (cynomolgus monkey PBMCs; [26]): 4.45 µM; EC50 (cynomolgus monkey PBMCs; [27]): 0.63 µM; EC50 (cynomolgus monkey PBMCs; [28]): 0.9 µM; EC50 (cynomolgus monkey PBMCs; [29]): 1.14 µM
CCOc1cc(C(=O)N2CCC(N3CCN(C)CC3)CC2)ccc1Nc1cc2c(cn1)N(C)C(=O)c1ccccc1N2C [Compound 61] | > 10 | > 10 | > 10 | 1.35 | 2.59 | 1.67 | 0.87 | > 10 | 1.27 | 1.05 | 4.51 | 2.78 |  |  |  |  |  |  |  |  | 
CCOc1cc(C(=O)N2CCC(N3CCCC3)CC2)ccc1Nc1cc2c(cn1)N(C)C(=O)c1ccccc1N2C [Compound 46, 3-(2-Ethoxy-4-(4-(pyrrolidin-1-yl)piperidine-1-carbonyl)phenylamino)-5,11-dimethyl-5H-benzo[e]pyrido[3,4-b][1,4]diazepin-10(11H)-one] |  |  |  |  |  |  |  |  |  |  |  |  | > 20 | > 20 | > 20 | > 20 | > 20 | > 20 | > 20 | > 20 | EC50 (cynomolgus monkey PBMCs; [14]): 0.26 µM; EC50 (cynomolgus monkey PBMCs; [15]): 0.18 µM; EC50 (cynomolgus monkey PBMCs; [16]): 0.28 µM; EC50 (cynomolgus monkey PBMCs; [17]): 0.32 µM; EC50 (cynomolgus monkey PBMCs; [18]): 0.2 µM; EC50 (cynomolgus monkey PBMCs; [19]): 0.48 µM; EC50 (cynomolgus monkey PBMCs; [20]): 0.6 µM; EC50 (cynomolgus monkey PBMCs; [21]): 0.35 µM; EC50 (cynomolgus monkey PBMCs; [22]): 0.31 µM; EC50 (cynomolgus monkey PBMCs; [23]): 0.36 µM; EC50 (cynomolgus monkey PBMCs; [24]): 0.13 µM; EC50 (cynomolgus monkey PBMCs; [25]): 0.78 µM; EC50 (cynomolgus monkey PBMCs; [26]): 2.2 µM; EC50 (cynomolgus monkey PBMCs; [27]): 0.24 µM; EC50 (cynomolgus monkey PBMCs; [28]): 0.45 µM; EC50 (cynomolgus monkey PBMCs; [29]): 0.41 µM; Kd (BRD1): > 20 µM; Kd (FALZ): > 20 µM

From patent US20170008888A1 (KYORIN PHARMACEUTICAL CO., LTD., priority 2014, published 2017)
